Tested on: rats
Test: nephrotoxicity model: eicosanoids in plasma of rats receiving puromycin, LC-MS/MS
Format: in vivo
Conditions: 4 groups receiving different dosages of puromycin, FIG. 4
Method: To determine free fatty acid metabolites in various biological materials, a small amount of sample (20 μL) was applied onto a filter spot containing stable isotopes for the various metabolites in a microtiter plate and extracted in aqueous methanol without further derivatization as described in FIG. 1. Separation of metabolites was done on a RP-HPLC (Zorbax Eclipse C18, 3.0×100 mm, 3.5 μm) column after injection of 20 μL extract using an Agilent 1100 system (Agilent Technologies) with an HTC PAL autosampler (CTC Analytics). Mobile phase compositions were A: H2O with 0.05% (v/v) formic acid and B: acetonitrile with 0.05% (v/v) formic acid. Flow rate was constant at 500 μL/min, metabolites were separated by gradient elution. Detection was done by MRM transitions in negative detection mode using an API4000Qtrap® equipped with an ESI source (Applied Biosystems). Quantification of metabolites was performed with Analyst v.1.4.2 quantitation.
Test cases of disease states show an increase of free fatty acids, prostaglandins and hydroxylated species in conjunction with pulmonary inflammations, prostate cancer and cardiovascular disease. […]
Plasma samples obtained from 4 groups of rats receiving different dosages of puromycin were analyzed.
FIGS. 4a, 4b, 4c and 4d. […] The concentrations of 4 different eicosanoids (as indicated) in rat plasma samples have been determined and normalized.

COc1ccc(C[C@H](N)C(=O)N[C@H]2[C@@H](O)[C@H](n3cnc4c(N(C)C)ncnc43)O[C@@H]2CO)cc1 [puromycin]
cyclooxygenase and lipoxygenase activity (concentrations of 4 different eicosanoids in rat plasma, normalized): Increased cyclooxygenase and lipoxygenase activity
